According to patent publication US20060142202A1, “Compositions and methods for targeted delivery of immune response modifiers” (3M Innovative Properties Company, priority 2000, published 2006):

| SMILES | melting point |
| --- | --- |
| CCOCc1nc2c(N)nc3ccccc3c2n1CC(C)(C)NC(=O)CCC(=O)NN [IRM5, N-{2-[4-Amino-2-(ethoxymethyl)-1H-imidazo[4,5-c]quinolin-1-yl]-1,1-dimethylethyl}-4-hydrazino-4-oxobutanamide] | 203 to 204.6 °C |
| CCCc1nc2c(N)nc3cc(OCCCCCCNC(=O)c4ccc(N=[N+]=[N-])cc4O)ccc3c2s1 [IRM9, N-{6-[(4-Amino-2-propyl[1,3]thiazolo[4,5-c]quinolin-7-yl)oxy]hexyl}-4-azido-2-hydroxybenzamide] | 127 to 128 °C |
